BindingDB's records for patent US20240352046 (1Cbio, 2024)

biological target: T1, Ectonucleotide pyrophosphatase/phosphodiesterase family member 1 (Homo sapiens, UniProt P22413); assay: ENPP1 Inhibition Assay
T1 sequence (P22413 whole entry): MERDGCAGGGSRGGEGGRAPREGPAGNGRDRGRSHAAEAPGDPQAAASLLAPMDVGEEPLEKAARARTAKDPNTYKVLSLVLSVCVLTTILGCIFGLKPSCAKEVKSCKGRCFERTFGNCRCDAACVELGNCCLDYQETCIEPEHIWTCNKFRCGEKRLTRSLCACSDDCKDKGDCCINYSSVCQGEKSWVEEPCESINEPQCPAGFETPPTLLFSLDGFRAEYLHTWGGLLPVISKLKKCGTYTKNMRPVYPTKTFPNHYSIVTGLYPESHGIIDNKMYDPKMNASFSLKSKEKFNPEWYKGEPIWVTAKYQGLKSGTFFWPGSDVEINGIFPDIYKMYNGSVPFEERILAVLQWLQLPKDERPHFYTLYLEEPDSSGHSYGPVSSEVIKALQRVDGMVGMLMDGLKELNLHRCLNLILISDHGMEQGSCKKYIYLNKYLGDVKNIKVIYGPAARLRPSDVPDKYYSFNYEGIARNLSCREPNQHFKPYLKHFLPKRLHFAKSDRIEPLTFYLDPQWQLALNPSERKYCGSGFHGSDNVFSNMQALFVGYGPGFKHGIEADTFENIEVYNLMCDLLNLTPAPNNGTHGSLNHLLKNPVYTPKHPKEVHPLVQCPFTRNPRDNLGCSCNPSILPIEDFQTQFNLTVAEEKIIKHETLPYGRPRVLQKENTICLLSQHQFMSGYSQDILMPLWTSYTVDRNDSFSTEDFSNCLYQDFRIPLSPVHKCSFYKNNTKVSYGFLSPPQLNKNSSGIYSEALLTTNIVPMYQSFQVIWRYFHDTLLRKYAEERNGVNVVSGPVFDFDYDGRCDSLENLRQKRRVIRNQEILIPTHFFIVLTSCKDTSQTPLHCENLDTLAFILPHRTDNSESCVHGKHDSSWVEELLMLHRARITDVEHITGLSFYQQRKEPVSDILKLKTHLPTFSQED
Procedure: Dose response curve for the compounds were prepared in duplicates with starting conc. at 5 μM and a three-fold titration was performed. The reaction buffer consisted of 50 mM Tris (pH 8.0), 0.5 mM CaCl2), 1 μM ZnCl2, 250 mM NaCl and 0.1 mg/ml BSA. […] The reaction was then stopped by heating at 90° C. for 3 minutes. […] Following 60 min incubation, 20 μL of detection mixture was added to the enzyme reaction bringing the final volume to 40 μL. The reaction was further incubated for 60 min at RT after which the plates were read using BioTek Plate reader.

SMILES | IC50 [nM]
COc1ccc2c(N3CC(CCNS(N)(=O)=O)C3)nc(C3CC3)nc2c1 [US20240352046, Compound 1.42] | > 3000
COc1cc2ncnc(N3CC(CCN(C)S(N)(=O)=O)C3)c2cc1OC [US20240352046, Compound 1.47] | 855
COc1ccc2c(N3CC(CCN(C)S(N)(=O)=O)C3)ncnc2c1 [US20240352046, Compound 1.40] | 793
COc1cc2nc(C(F)F)nc(N3CC(CCNS(N)(=O)=O)C3)c2cc1OC [US20240352046, Compound 1.43] | 892
